{"source": "patent US20170340658A1", "about": "“COMBINED USE OF A CHEMOTHERAPEUTIC AGENT AND A CYCLIC DINUCLEOTIDE FOR CANCER TREATMENT” (INVIVOGEN, priority 2014, published 2017)", "key": {"Panc02 pancreatic tumors": {"tested_on": "Panc02 pancreatic tumors", "test": "Orthotopic Panc02 pancreatic tumors in mice, intercalated combinations (Example 8)", "format": "in vivo, mouse", "conditions": "for mean tumor volume: Day 30, CDN 5 mg/kg i.t. Day 9, i.v. Days 16, 23, gemcitabine 100 mg/kg i.p. Days 12, 19, 26; for # Mice with metastases / Average # metastases per mouse: Day 30 post-implantation, CDN 5 mg/kg, gemcitabine 100 mg/kg i.p.", "protocol": "• Species evaluated: mouse • Tumor model: Panc02 • Treatment tested: intercalated combinations of a CDN (either CL592, CL614 or CL656) and gemcitabine • Reference compounds: gemcitabine, CL592, CL614 and CL656 • Parameters evaluated: tumor growth, and incidence of metastases\nOn Day 1, 55 mice (C57/BL6; male; 10 weeks old; 23 g to 25 g) each received an intrapancreatic injection of Panc02 cells (1×10^6 cells in 50 μL serum-free medium).\nDay 9: Groups 3 to 8 each received an intratumoral injection of the appropriate CDN (CL592, CL614 or CL656, respectively; 50 μL; 5 mg/kg in 0.9% saline)\nDay 12: Group 2 and Groups 6 to 8 each received an intraperitoneal injection of gemcitabine (200 μL; 100 mg/kg in 0.9% saline)\nDay 16: Groups 3 to 8 each received an intravenous injection of the appropriate CDN (CL592, CL614 or CL656, respectively; 50 μL; 5 mg/kg in 0.9% saline)\nDay 19: Group 2 and Groups 6 to 8 were treated as on Day 12.\nDay 23: Groups 3 to 8 were treated as on Day 16.\nDay 26: Group 2 and Groups 6 to 8 were treated as on Days 12 and 19.\nDay 30: Each mouse was checked for tumor presence and metastases."}, "Panc02 tumors": {"tested_on": "Panc02 tumors", "test": "Murine model of orthotopic Panc02 pancreatic tumors (Example 4)", "format": "in vivo, mouse", "conditions": "for INCIDENCE OF METASTASIS / PRE-SACRIFICE MORTALITY: Day 34", "description": "• Species evaluated: mouse • Tumor model: Panc02 (murine pancreatic tumor cell line) • Treatments tested: gemcitabine monotherapy, c-AIMP monotherapy, and gemcitabine combined with c-AIMP • Clinical parameters evaluated: tumor volume, incidence of metastasis and mortality • Administration routes evaluated: intravenous (i.v.) or intratumoral (i.t.) injection (depending on experiment) • On Day 1, 30 mice (C57BL/6; male) received an orthotopic injection of Panc02 tumor cells (1×10^6) in their pancreas. The mice were then divided into six groups of five animals. Each group received a different treatment, as outlined below: • Group 1: saline (by i.v. injection) on Days 7, 10, 14, 17, 21 and 24; • Group 2: gemcitabine monotherapy (100 mg/kg; i.p.); on Days 7, 10, 14, 17, 21 and 24; • Group 3: c-AIMP monotherapy (25 mg/kg; i.t.) on Days 7 and 21; • Group 4: c-AIMP monotherapy (25 mg/kg; i.v.) on Days 7, 14 and 21; • Group 5: c-AIMP (25 mg/kg; i.t.) followed (5 h later) by gemcitabine (100 mg/kg; i.p.) on Day 7; and gemcitabine (100 mg/kg; i.p.) on Days 10, 14, 17, 21 and 24; • Group 6: c-AIMP (25 mg/kg; i.v.) followed (5 h later) by gemcitabine (100 mg/kg; i.p.) on Day 7; and gemcitabine (100 mg/kg; i.p.) on Days 10, 14, 17, 21 and 24;\nAt days 7, 21/24, 28 and 34, the mice were assessed for tumor volume, incidence of metastasis and mortality."}, "Type I interferons": {"tested_on": "Type I interferons", "test": "Type I interferon induction in sera of CDN-treated mice (Example 3)", "format": "in vivo, mouse", "conditions": "10 mg/kg i.v., 4 h post-treatment, FIG. 5", "description": "(§1) • Species evaluated: mouse • Cyclic dinucleotides tested: CL604, CL606, CL609, CL611 and CL614 • Reference compound: c-AIMP and saline • Cytokines evaluated: IFN-α/β (using RAW ISG54 reporter cells) and IL-6 (by ELISA)\n(§2) Twenty-one mice (Swiss; female; mean age: 8 weeks) were divided into seven groups of three: one group served as control (saline) and the other six groups were each treated with a cyclic dinucleotide (either c-AIMP, CL604, CL606, CL609, CL611 or CL614). On Day −7, blood samples for basal cytokine levels were collected from all mice and stored at −20° C. until analysis. On Day 1, the mice were treated with either 200 μL of physiologic serum (containing 0.9% NaCl) or 200 μL of a solution of a cyclic dinucleotide (dose: 10 mg/kg) in physiologic serum (containing 0.9% NaCl), by intravenous (i.v.) injection. Blood samples were collected from the mice at 4 h post-injection, and then stored at −20° C. until analysis. Cytokine induction was measured in the sera from the blood samples."}, "IL-6": {"tested_on": "IL-6", "test": "IL-6 induction in sera of CDN-treated mice, ELISA (Example 3)", "format": "in vivo, mouse", "conditions": "10 mg/kg i.v., 4 h post-treatment, FIG. 6", "description": "Interleukin-6 was quantified using an enzyme-linked immunoassay (ELISA) according to the manufacturer's instructions (R&D Systems).\nas §1, §2"}, "PC-1.0 tumors": {"tested_on": "PC-1.0 tumors", "test": "Hamster model of orthotopic PC-1.0 pancreatic tumors (Example 5)", "format": "in vivo", "conditions": "gemcitabine monotherapy 50 mg/Kg i.p.", "description": "• Species evaluated: hamster • Tumor model: PC-1.0 (hamster pancreatic tumor cell line (Egami, Tomioka, Tempero, Kay, & Pour, 1991)) • Treatments tested: gemcitabine monotherapy, and gemcitabine combined with c-AIMP • Clinical parameters evaluated: tumor volume, incidence of metastasis and mortality • Administration routes evaluated: intravenous (i.v.) vs. intratumoral (i.t.) injection (depending on experiment) for CL592 • On Day 1, 22 hamsters (Golden Syrian) received an orthotopic injection of PC-1.0 tumor cells (1×10^6) in the tail of their pancreas. The hamsters were then divided into four groups of five or six animals. Each group received a different treatment, as outlined below: • Group 1 (n=5) received saline (by i.v. injection) on Days 8, 15 and 22; • Group 2 (n=6): c-AIMP (25 mg/Kg; i.v.) followed by gemcitabine (50 mg/Kg; i.p.) on Day 8; and gemcitabine (50 mg/Kg; i.p.) on Days 15 and 22; • Group 3 (n=6): c-AIMP (25 mg/Kg; i.t.) followed by gemcitabine (50 mg/Kg; i.p.) on Day 8; and gemcitabine (50 mg/Kg; i.p.) on Days 15 and 22; • Group 4 (n=5): gemcitabine monotherapy (50 mg/Kg; i.p.) at Days 8, 15 and 22.\nAt days 8, 21/24, 28 and 34, the mice were assessed for tumor volume, incidence of metastasis and mortality."}, "DT6606 pancreatic tumors": {"tested_on": "DT6606 pancreatic tumors", "conditions": "Day 36 vs pre-treatment tumor volume; CL592 i.t. Day 13, 5 mg/kg i.v. Days 20, 27; gemcitabine 100 mg/kg i.p. Days 16, 23, 30", "quoted_text": "• Tumor line evaluated: DT6606 (Partecke, 2011) • Treatment tested: intercalated combination of CL592 and gemcitabine • Reference compound: gemcitabine • Parameter evaluated: tumor growth\nOn Day 1, 20 mice (C57/BL6; female; 10 weeks old; 18 g to 22 g) received an intrapancreatic injection of DT6606 cells (5×10^5 cells in 30 μL serum-free medium). One mouse was sacrificed before treatment due to a renal deformation.\nThe groups were then treated according to the treatment regimen below.\nDay 13: Groups 1 and 2 received an intratumoral injection of saline solution (50 μL), and Groups 3 and 4, an intratumoral injection of CL592 (50 μL; 2.5 mg/mL in saline buffer;).\nDay 16: Groups 2 and 4 received an intraperitoneal tail injection of gemcitabine (100 μL solution/100 g body mass; 10 mg/mL in saline buffer; dose: 100 mg/kg).\nDay 20: Groups 3 and 4 received an intravenous tail injection of CL592 (200 μL; 0.5 mg/mL in saline buffer; dose: 5 mg/kg).\nDay 23: Groups 2 and 4 were treated as on Day 16.\nDay 27: Groups 3 and 4 were treated as on Day 20.\nDay 30: Groups 2 and 4 were treated as on Days 16 and 23.\nDay 36: Each mouse was checked for tumor presence. The volume of each observed tumor was measured and the mice were then sacrificed.\nTumor growth (expressed as a percentage) was calculated as follows:\n(([tumor volume at day 36]−[pre-treatment tumor volume])/[pre-treatment tumor volume])×100%"}, "[1]": {"conditions": "c-AIMP 25 mg/kg i.t., alone or with gemcitabine 100 mg/kg i.p."}, "[2]": {"conditions": "c-AIMP 25 mg/kg i.v., alone or with gemcitabine 100 mg/kg i.p."}, "[3]": {"conditions": "gemcitabine monotherapy 100 mg/kg i.p."}}}
{"smiles": "Nc1ncnc2c1ncn2C1OC2COP(=O)(S)O[C@@H]3C(COP(=O)(S)O[C@H]2[C@H]1F)OC(n1cnc2c(=O)[nH]cnc21)[C@@H]3F", "note": "(mixture of isomers) [CL656, c-[2′FdAMP(S)-2′FdIMP(S)]]", "values": [{"measurement": "mean tumor volume", "setting": "Panc02 pancreatic tumors", "value": 340.2, "unit": "mm^3"}, {"measurement": "# Mice with metastases", "setting": "Panc02 pancreatic tumors", "value": "40% (2/5)"}, {"measurement": "Average # metastases per mouse", "setting": "Panc02 pancreatic tumors", "value": 3}]}
{"smiles": "Nc1ncnc2c1ncn2[C@@H]1O[C@@H]2COP(=O)(O)O[C@H]3[C@@H](O)[C@H](n4cnc5c(=O)[nH]cnc54)O[C@@H]3COP(=O)(O)O[C@H]2[C@H]1O", "note": "[CL592, c-AIMP]", "values": [{"measurement": "INCIDENCE OF METASTASIS", "setting": "Panc02 tumors; [1]", "value": 0, "unit": "%"}, {"measurement": "PRE-SACRIFICE MORTALITY", "setting": "Panc02 tumors; [1]", "value": 0, "unit": "%"}, {"measurement": "INCIDENCE OF METASTASIS", "setting": "Panc02 tumors; [2]", "value": 0, "unit": "%"}, {"measurement": "PRE-SACRIFICE MORTALITY", "setting": "Panc02 tumors; [2]", "value": 0, "unit": "%"}, {"measurement": "reducing tumor growth", "setting": "Panc02 tumors; FIG. 7, c-AIMP 25 mg/kg i.v. or i.t., comparison among all treatments", "value": "most effective ones at reducing tumor growth"}, {"measurement": "mean tumor volume", "setting": "Panc02 pancreatic tumors", "value": 231.0, "unit": "mm^3"}, {"measurement": "# Mice with metastases", "setting": "Panc02 pancreatic tumors", "value": "20% (1/5)"}, {"measurement": "Average # metastases per mouse", "setting": "Panc02 pancreatic tumors", "value": 2}]}
{"smiles": "Nc1ncnc2c1ncn2C1OC2COP(=O)(O)O[C@H]3C(n4cnc5c(=O)[nH]cnc54)OC(COP(=O)(O)O[C@@H]1[C@@H]2O)[C@H]3O", "note": "(stereo partly drawn) [CL611, (2′,2′)c-AIMP]", "values": [{"measurement": "induction of Type I interferons in sera", "setting": "Type I interferons", "value": "all of the tested cyclic dinucleotides except CL611 strongly induced Type I interferons"}, {"measurement": "induction of IL-6 in sera", "setting": "IL-6", "value": "all of the cyclic dinucleotides except CL611 induced IL-6"}]}
{"smiles": "Nc1ncnc2c1ncn2C1OC2COP(=O)(O)O[C@@H]3C(COP(=O)(O)O[C@H]2[C@H]1F)OC(n1cnc2c(=O)[nH]cnc21)[C@@H]3F", "note": "(stereo partly drawn) [CL614, c-(2′FdAMP-2′FdIMP)]", "values": [{"measurement": "mean tumor volume", "setting": "Panc02 pancreatic tumors", "value": 318.6, "unit": "mm^3"}, {"measurement": "# Mice with metastases", "setting": "Panc02 pancreatic tumors", "value": "40% (2/5)"}, {"measurement": "Average # metastases per mouse", "setting": "Panc02 pancreatic tumors", "value": 5}]}
{"smiles": "Nc1ccn([C@@H]2O[C@H](CO)[C@@H](O)C2(F)F)c(=O)n1", "note": "[gemcitabine, Gemcitabine]", "values": [{"measurement": "INCIDENCE OF METASTASIS", "setting": "Panc02 tumors; [3]", "value": 50, "unit": "%"}, {"measurement": "PRE-SACRIFICE MORTALITY", "setting": "Panc02 tumors; [3]", "value": 20, "unit": "%"}, {"measurement": "PRE-SACRIFICE MORTALITY", "setting": "Panc02 tumors; gemcitabine monotherapy 100 mg/kg i.p., listed as GemC", "value": 20, "unit": "%"}, {"measurement": "INCIDENCE OF METASTASES", "setting": "PC-1.0 tumors", "value": 100, "unit": "%"}, {"measurement": "NUMBER OF METASTASES PER HAMSTER, Hamster 1", "setting": "PC-1.0 tumors", "value": 13}, {"measurement": "NUMBER OF METASTASES PER HAMSTER, Hamster 2", "setting": "PC-1.0 tumors", "value": 15}, {"measurement": "NUMBER OF METASTASES PER HAMSTER, Hamster 3", "setting": "PC-1.0 tumors", "value": 3}, {"measurement": "NUMBER OF METASTASES PER HAMSTER, Hamster 4", "setting": "PC-1.0 tumors", "value": 10}, {"measurement": "NUMBER OF METASTASES PER HAMSTER, Hamster 5", "setting": "PC-1.0 tumors", "value": 5}, {"measurement": "INCIDENCE OF METASTASES", "setting": "PC-1.0 tumors; listed as GemC", "value": 100, "unit": "%"}, {"measurement": "mean tumor volume", "setting": "Panc02 pancreatic tumors", "value": 380.7, "unit": "mm^3"}, {"measurement": "# Mice with metastases", "setting": "Panc02 pancreatic tumors", "value": "88% (7/8)"}, {"measurement": "Average # metastases per mouse", "setting": "Panc02 pancreatic tumors", "value": 13}, {"measurement": "mean tumor growth", "setting": "DT6606 pancreatic tumors", "value": 22, "unit": "%"}]}
